From ChEMBL document CHEMBL3745694, “Total synthesis and cytotoxic activities of longamide B, longamide B methyl ester, hanishin, and their analogues” (Bioorg Med Chem Lett, 2016)

Tests used:
A549 = test: Cytotoxicity against human A549 cells after 72 hrs by CCK-8 assay; format: functional, cell-based; conditions: A549, 72 h
[1] = Cytotoxicity against human PC3 cells after 72 hrs by CCK-8 assay; format: functional, cell-based; conditions: PC-3, 72 h

Structure (SMILES) | IC50 (A549) [µM] | IC50 [1] [µM]
COC(=O)CC1CNC(=O)c2cccn21 (configuration not stated) | > 200 | > 200
COC(=O)CC1CNC(=O)c2ccc(Br)n21 (configuration not stated) | 65 | 70
CCOC(=O)CC1CNC(=O)c2ccc(Br)n21 (configuration not stated) | 32 | 29
COC(=O)Cc1c[nH]c(=O)c2ccc(Br)n12 | 165 | 176
O=C(O)CC1CNC(=O)c2ccc(Br)n21 (configuration not stated) | > 200 | > 200
COC(=O)Cc1c[nH]c(=O)c2cccn12 | > 200 | > 200
COC(=O)Cc1c[nH]c(=O)c2cc(Br)c(Br)n12 | > 200 | > 200
CCOC(=O)CC1CNC(=O)c2cc(Br)c(Br)n21 (racemic) | 41 | 39
O=C(O)CC1CNC(=O)c2cc(Br)c(Br)n21 (racemic) | > 200 | > 200
COC(=O)CC1CNC(=O)c2cc(Br)c(Br)n21 (racemic) | 82 | 79
CO[C@@]12[C@H](COC(N)=O)C3=C(C(=O)C(C)=C(N)C3=O)N1C[C@@H]1N[C@@H]12 [MITOMYCIN] | 1.7 | 1.4
